Legend:
[1] = target: T1, Cysteinyl leukotriene receptor 1 (Homo sapiens, UniProt Q9Y271); assay: In vitro inhibitory activity against Cysteinyl leukotriene D4 receptor from human lung membrane; type: tissue-based
T1 sequence (Q9Y271 whole entry): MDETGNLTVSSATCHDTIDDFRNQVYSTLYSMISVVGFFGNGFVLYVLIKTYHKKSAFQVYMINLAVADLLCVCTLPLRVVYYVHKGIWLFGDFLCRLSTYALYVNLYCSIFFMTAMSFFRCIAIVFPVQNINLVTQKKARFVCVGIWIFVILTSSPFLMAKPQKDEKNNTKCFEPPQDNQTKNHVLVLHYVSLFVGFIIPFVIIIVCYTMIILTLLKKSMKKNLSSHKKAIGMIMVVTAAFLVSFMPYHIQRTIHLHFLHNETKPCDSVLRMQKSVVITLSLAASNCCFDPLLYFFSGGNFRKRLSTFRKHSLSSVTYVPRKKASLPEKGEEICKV

Cavia porcellus = species on record: Cavia porcellus; assay: Antagonist activity of LTD4-induced contractions of isolated guinea pig trachea; type: functional
[2] = target: T2, Cysteinyl leukotriene receptor 1 (Cavia porcellus, UniProt Q2NNR5); assay: Binding affinity against Cysteinyl leukotriene D4 receptor from guinea pig lung membrane; type: tissue-based
T2 sequence (Q2NNR5 whole entry): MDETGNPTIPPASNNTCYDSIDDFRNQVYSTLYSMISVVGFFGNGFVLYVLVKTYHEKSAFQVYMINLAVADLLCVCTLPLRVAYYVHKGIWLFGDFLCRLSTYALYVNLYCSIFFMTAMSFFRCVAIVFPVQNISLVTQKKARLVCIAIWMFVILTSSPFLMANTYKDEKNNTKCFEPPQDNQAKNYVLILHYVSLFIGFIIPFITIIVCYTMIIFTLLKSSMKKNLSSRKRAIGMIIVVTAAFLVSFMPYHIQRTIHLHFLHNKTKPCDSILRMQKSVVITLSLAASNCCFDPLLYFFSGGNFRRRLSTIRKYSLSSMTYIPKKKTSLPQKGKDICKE

Rattus norvegicus = species on record: Rattus norvegicus; assay: Tested for antigen-induced dyspnea in hyperactive rats; type: functional

Compound	IC50 [1] [nM]	-Log KB (Cavia porcellus)	IC50 [2] [nM]	ED50 (Rattus norvegicus) [mg/kg]
CN(C)C(=O)CCSC(SCCC(=O)[O-])c1cccc(/C=C/c2ccc3ccc(Cl)cc3n2)c1.[Na+] (stereo not drawn)	3.1	9	0.77	0.097
CN(C)C(=O)CCS[C@H](SCCC(=O)O)c1cccc(/C=C/c2ccc3ccc(Cl)cc3n2)c1 [VERLUKAST]	8	8.7	3.2	0.028

From ChEMBL document CHEMBL1125088, “Stereospecific synthesis, assignment of absolute configuration, and biological activity of the enantiomers of 3-[[[3-[2-(7-chloroquinolin-2-yl)-(E)-ethenyl]phenyl] [[3-(dimethylamino)-3-oxopropyl]thio]methyl]thio]propionic acid, a potent and specific leukotriene D4 receptor antagonist” (J Med Chem, 1990)
